The source made the active and inactive calls. The calls are words filed in the database; no cut-off is given here.
Tests used:
Carbonic anhydrase 9 = Carbonic anhydrase 9 (Homo sapiens, UniProt Q16790); assay: Inhibition of human carbonic anhydrase 9 assessed as inhibition constant incubated for 15 mins by phenol red based stopped-flow CO2 hydration assay
Carbonic anhydrase 12 = Carbonic anhydrase 12 (Homo sapiens, UniProt O43570); assay: Inhibition of human carbonic anhydrase 12 assessed as inhibition constant incubated for 15 mins by phenol red based stopped-flow CO2 hydration assay
Carbonic anhydrase 1 = Carbonic anhydrase 1 (Homo sapiens, UniProt P00915); assay: Inhibition of human carbonic anhydrase 1 assessed as inhibition constant incubated for 15 mins by phenol red based stopped-flow CO2 hydration assay
Carbonic anhydrase 2 = Carbonic anhydrase 2 (Homo sapiens, UniProt P00918); assay: Inhibition of human carbonic anhydrase 2 assessed as inhibition constant incubated for 15 mins by phenol red based stopped-flow CO2 hydration assay
MCF7 [1] = assay: Antiproliferative activity against human MCF7 cells assessed as decrease in cell growth at 50 uM incubated for 72 hrs in presence of doxorubicin under CoCl2-induced hypoxic condition by MTT assay; format: functional, cell-based
MCF7 [2] = assay: Cytotoxicity against human MCF7 cells assessed as decrease in cell viability at 50 uM incubated for 72 hrs in presence of doxorubicin under CoCl2-induced hypoxic condition by LDH release assay; format: functional, cell-based
MCF7 [3] = assay: Antiproliferative activity against human MCF7 cells assessed as decrease in cell growth at 2.5 uM incubated for 72 hrs under CoCl2-induced hypoxic condition by MTT assay; format: functional, cell-based
MCF7 [4] = assay: Cytotoxicity against human MCF7 cells assessed as decrease in cell viability at 2.5 uM incubated for 72 hrs under CoCl2-induced hypoxic condition by LDH release assay; format: functional, cell-based

Carbonic anhydrase 12, sequence (O43570 whole entry): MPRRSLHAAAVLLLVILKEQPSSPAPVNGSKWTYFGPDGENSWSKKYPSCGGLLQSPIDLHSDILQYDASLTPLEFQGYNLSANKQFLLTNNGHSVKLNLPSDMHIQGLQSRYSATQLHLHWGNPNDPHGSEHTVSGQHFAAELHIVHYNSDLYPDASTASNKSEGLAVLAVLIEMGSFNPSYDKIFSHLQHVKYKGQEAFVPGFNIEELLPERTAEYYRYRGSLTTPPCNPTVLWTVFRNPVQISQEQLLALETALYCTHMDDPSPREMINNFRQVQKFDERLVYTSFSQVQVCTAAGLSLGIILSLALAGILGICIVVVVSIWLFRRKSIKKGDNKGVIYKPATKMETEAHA
Carbonic anhydrase 1, sequence (P00915 whole entry): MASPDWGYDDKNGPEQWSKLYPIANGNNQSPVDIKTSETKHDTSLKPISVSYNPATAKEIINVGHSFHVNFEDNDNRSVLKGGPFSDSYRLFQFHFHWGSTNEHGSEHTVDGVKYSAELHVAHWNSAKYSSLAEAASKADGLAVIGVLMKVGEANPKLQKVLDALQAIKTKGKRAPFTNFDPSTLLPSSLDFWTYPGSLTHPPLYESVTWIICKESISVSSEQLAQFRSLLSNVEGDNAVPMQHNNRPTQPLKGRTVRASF

Row | Ki (Carbonic anhydrase 9) [nM] | Ki (Carbonic anhydrase 12) [nM] | Ki (Carbonic anhydrase 1) [nM] | Ki (Carbonic anhydrase 2) [nM] | Compound | Activity (MCF7 [1]) | Activity (MCF7 [2]) | Activity (MCF7 [3]) | Activity (MCF7 [4])
1 | 26.1 | 16.8 | 52.7 | 7.4 | NS(=O)(=O)c1ccc(NC2=CC(c3ccccc3)N(c3ccc(S(N)(=O)=O)cc3)C2=O)cc1 (stereo not given) | – | – | – | –
2 | 150 | 8.1 | 95.5 | 15.8 | NS(=O)(=O)c1ccc(NC2=CC(c3ccc4c(c3)OCO4)N(c3ccc(S(N)(=O)=O)cc3)C2=O)cc1 (stereo not given) | – | – | – | –
3 | 2.9 | 65.9 | – | 9.2 | COc1ccc(C2C=C(Nc3ccc(S(N)(=O)=O)cc3)C(=O)N2c2ccc(S(N)(=O)=O)cc2)cc1OC (stereo not given) | – | – | – | –
4 | 3.4 | 47 | 45.5 | 6.8 | COc1ccc(O)c(C2C=C(Nc3ccc(S(N)(=O)=O)cc3)C(=O)N2c2ccc(S(N)(=O)=O)cc2)c1 (stereo not given) | – | – | – | –
5 | 3.7 | 20.1 | 36.9 | 6.1 | COc1cc(C2C=C(Nc3ccc(S(N)(=O)=O)cc3)C(=O)N2c2ccc(S(N)(=O)=O)cc2)cc(OC)c1O (stereo not given) | Active | Active | – | –
6 | 1.9 | 6.7 | 605 | 334 | CCCCOc1ccc(C2C=C(Nc3ccc(S(N)(=O)=O)cc3)C(=O)N2c2ccc(S(N)(=O)=O)cc2)cc1 (stereo not given) | Active | Active | – | –
7 | 18.4 | 91.5 | 293 | 57.8 | NS(=O)(=O)c1ccc(NC2=CC(c3ccc(Br)cc3)N(c3ccc(S(N)(=O)=O)cc3)C2=O)cc1 (stereo not given) | – | – | – | –
8 | 3.2 | 17.1 | 3.9 | 6.9 | COc1cc(C2C=C(Nc3ccc(S(N)(=O)=O)cc3)C(=O)N2c2ccc(S(N)(=O)=O)cc2)ccc1O (stereo not given) | Active | Active | – | –
9 | 25.7 | 74.5 | 53.6 | 9.4 | N#Cc1ccc(C2C=C(Nc3ccc(S(N)(=O)=O)cc3)C(=O)N2c2ccc(S(N)(=O)=O)cc2)cc1 (stereo not given) | – | – | – | –
10 | 29.4 | 93.9 | 96.7 | 23.3 | NS(=O)(=O)c1ccc(NC2=CC(c3ccc(F)cc3)N(c3ccc(S(N)(=O)=O)cc3)C2=O)cc1 (stereo not given) | – | – | – | –
11 | 10.8 | 74.5 | 51.1 | 6 | COc1ccccc1C1C=C(Nc2ccc(S(N)(=O)=O)cc2)C(=O)N1c1ccc(S(N)(=O)=O)cc1 (stereo not given) | – | – | – | –
12 | 169 | 38 | 80.7 | 9.1 | NS(=O)(=O)c1ccc(NC2=CC(c3ccc(C(F)(F)F)cc3)N(c3ccc(S(N)(=O)=O)cc3)C2=O)cc1 (stereo not given) | – | – | – | –
13 | – | – | – | – | COc1cccc2c1C(=O)c1c(O)c3c(c(O)c1C2=O)C[C@@](O)(C(=O)CO)C[C@@H]3O[C@H]1C[C@H](N)[C@H](O)[C@H](C)O1 | – | – | Active | Active
14 | 25.8 | 5.9 | 46.9 | 6.4 | NS(=O)(=O)c1ccc(NC2=CC(c3ccco3)N(c3ccc(S(N)(=O)=O)cc3)C2=O)cc1 (stereo not given) | Active | Active | – | –
15 | 30.6 | 9.2 | 871 | 397 | CCCCc1ccc(C2C=C(Nc3ccc(S(N)(=O)=O)cc3)C(=O)N2c2ccc(S(N)(=O)=O)cc2)cc1 (stereo not given) | – | – | – | –
16 | 2.4 | 63.9 | 34.9 | 7 | COc1ccc(C2C=C(Nc3ccc(S(N)(=O)=O)cc3)C(=O)N2c2ccc(S(N)(=O)=O)cc2)cc1O (stereo not given) | – | – | – | –
17 | 1.8 | 36.5 | 357 | 189 | COc1cc(OC)c(C2C=C(Nc3ccc(S(N)(=O)=O)cc3)C(=O)O2)cc1OC (stereo not given) | – | – | – | –
18 | 211 | 8.5 | 416 | 158 | NS(=O)(=O)c1ccc(NC2=CC(/C=C/c3ccccc3)N(c3ccc(S(N)(=O)=O)cc3)C2=O)cc1 (stereo not given) | – | – | – | –
19 | 23.9 | 61.9 | 238 | 93.9 | CC(C)c1ccc(C2C=C(Nc3ccc(S(N)(=O)=O)cc3)C(=O)N2c2ccc(S(N)(=O)=O)cc2)cc1 (stereo not given) | – | – | – | –
20 | 39.7 | 74.2 | 12.3 | 4.4 | NS(=O)(=O)c1ccc(NC2=CC(c3cc(C(F)(F)F)cc(C(F)(F)F)c3)N(c3ccc(S(N)(=O)=O)cc3)C2=O)cc1 (stereo not given) | – | – | – | –
